Assay results: US5583127A, “17-iminomethylalkenyl-5 β, 14 β-androstane and 17-iminoalkyl-5 β, 14 β-androstane derivatives active on the cardiovascular system, and pharmaceutical compositions containing same” (Sigma-Tau Industrie Farmaceutiche Riunite S.p.A., priority 1993, dated 1996)
Where two headings read alike, the source gives them in different places.

Assays:
[1] = reported in literature; cited from earlier work
Na^+,K^+ -ATPase = details: reported in literature; cited from earlier work
[2] = tested on: spontaneous hypertensive rats (MHS); assay: effect of 5 week-treatment in spontaneous hypertensive rats (MHS) on the development of hypertension (SBP and HR, tail cuff); type: in vivo, rat; details: 10 mg/Kg/os daily in Methocel 0.5% w/v, 5 weeks
Description: Systolic blood pressure (SBP) and heart rate (HR) were measured, by the tail cuff method, in young prehypertensive male rats (MHS or SHR) strains before the development of hypertension (4 weeks of age) for recording the basal values of SBP. Groups of 7 rats were formed and subdivided in control and treated groups. The compound, suspended in Methocel 0.5% (w/v), was orally given daily for at least 5 weeks to the treated groups. The control group received only Methocel. SBP and HR were measured weekly 6 and 24 hrs after treatment. After 5 weeks of treatment, when hypertension was fully developed in the control group (9 weeks of age), washout was started for at least one week, to verify whether the treatment maintained blood pressure low or reestablished the basal values. […] (Takeda K. et al., Japan J. Pharmacol., 1979, 29,171; Takeda K. et al. Japan J. Pharmacol., 1982, 32, 283; Richer C. et al. Eur. J. Pharmacol, 1978, 47,393).

[3] = target: Na^+, K^+ -ATPase receptor (Homo sapiens, UniProt P05023); assay: displacement of the specific 3H-ouabain binding from the Na+,K+-ATPase receptor
[4] = target: purified Na^+,K^+ -ATPase (Homo sapiens, UniProt P05023); assay: inhibition of the activity of the purified Na+,K+-ATPase (% hydrolysis of 32P-ATP); type: biochemical; details: read-out: Inhibitory Activity log IC50 (converted)
[5] = displacement of specific 3H-ouabain binding, read-out: Binding ^3 H-Ouab. Displacement log IC50 (converted)

Row | Structure (SMILES) | IC50 [3, 5] | IC50 ([4]; purified Na+,K+-ATPase) | also measured
1 | C[C@]12CC[C@H](O)C[C@H]1CC[C@@H]1[C@@H]2CC[C@]2(C)C(=NNC(=N)N)CC[C@]12O [17-guanidinoimino-5β-androstane-3β,14β-diol] | – | – | positive inotropic activity [1]: weak positive inotropic agents; inhibition of Na+,K+-ATPase (Na^+,K^+ -ATPase): weak inhibitors of Na^+,K^+ -ATPase
2 | C[C@]12CC[C@H](O)C[C@H]1CC[C@@H]1[C@@H]2CC[C@]2(C)[C@@H](/C=C/C=N/NC(=N)N)CC[C@]12O [Comp. I-aa, (E,E)-17β-(3-Guanidinoimino-1-propenyl)-5β-androstane-3β,14β-diol] | 25.1 nM | – | SBP (systolic blood pressure) ([2]; controls 172 +/- 3.5): 149 +/- 3.9 mm Hg; HR (heart rate) ([2]; controls 380 +/- 9.0): 373 +/- 10.0 beats/min.
3 | CO/N=C/C=C/[C@H]1CC[C@]2(O)[C@@H]3CC[C@@H]4C[C@@H](O)CC[C@]4(C)[C@H]3CC[C@]12C [Comp. I-an, (E,E)-17β-(3-Methoxyimino-1-propenyl)-5β-androstane-3β,14β-diol] | 2000 nM | 20000 nM | –
4 | C[C@]12CC[C@H](O)C[C@H]1CC[C@@H]1[C@@H]2CC[C@]2(C)[C@@H](/C=C/C=N/NC3=NCCCN3)CC[C@]12O [Comp. I-ag, (E,E)-17β-[3-(1,4,5,6-Tetrahydro-2-pyrimidinyl)hydrazono-1-propenyl]-5β-androstane-3β,14β-diol] | 39.8 nM | 1580 nM | –
5 | CN(C)CCON=CC[C@H]1CC[C@]2(O)[C@@H]3CC[C@@H]4C[C@@H](OCCCN5CCCC5)CC[C@]4(C)[C@H]3CC[C@]12C (mixture of isomers) [Comp. I-ci, 3β-[3-(1-Pyrrolidinyl)propoxy]-17β-[3-(EZ)-(2-dimethylamino-ethoxyimino)ethyl]-5β-androstane-14β-ol] | – | 158 nM | IC50 [3]: 50.1 nM
6 | C[C@]12CC[C@H](O)C[C@H]1CC[C@@H]1[C@@H]2CC[C@]2(C)[C@@H](CC=NNC3=NCCN3)CC[C@]12O (mixture of isomers) [Comp. I-bd, (EZ)-17β-[2-(2-Imidazolin-2-yl)hydrazonoethyl]-5β-androstane-3β,14β-diol] | 126 nM | 631 nM | –
7 | C[C@]12CC[C@H](O)C[C@H]1CC[C@@H]1[C@@H]2CC[C@]2(C)[C@@](O)(/C=C/C=N/NC(=N)N)CC[C@]12O [Comp. 1-bo, (E,E)-17β-(3-Guanidinoimino-1-propenyl)-5β-androstane-3β,14β,17α-triol] | 501 nM | 10000 nM | –
8 | C[C@]12CC[C@H](O)C[C@H]1CC[C@@H]1[C@@H]2CC[C@]2(C)[C@@H](/C=C/C=N/OCCN)CC[C@]12O [Comp. I-ao, (E,E)-17β-[3-(2-Aminoethoxyimino)-1-propenyl]-5β-androstane-3β,14β-diol] | 15.8 nM | 20 nM | –
9 | C[C@]12CC[C@H](O)C[C@H]1CC[C@@H]1[C@@H]2CC[C@]2(C)[C@@H](/C=C/C=N/NC(N)=O)CC[C@]12O [Comp. I-ak, (E,E)-17β-(3-Semicarbazono)-1-propenyl-5β-androstane-3β,14β-diol] | 2000 nM | – | IC50 [4]: 25100 nM
10 | C[C@]12CC[C@H](O)C[C@H]1CC[C@@H]1[C@@H]2CC[C@]2(C)[C@@H](CCC=NNC(=N)N)CC[C@]12O (mixture of isomers) [Comp. 1-bi, (EZ)-17β-(3-Guanidinoiminopropyl)-5β-androstane-3β,14β-diol] | 126 nM | 2000 nM | –
11 | C[C@]12CC[C@H](OCCN3CCCC3)C[C@H]1CC[C@@H]1[C@@H]2CC[C@]2(C)[C@@H](/C=C/C=NNC(=N)N)CC[C@]12O [Comp. I-bx, 3β-[2-(1-Pyrrolidinyl)ethoxy]-17β-(3-(E,Z)-guanidinoimino-1-(E)-propenyl)-5β-androstane-3β,14β-diol] | 20 nM | 126 nM | –
12 | C[C@]12CC[C@H](O)C[C@H]1CC[C@@H]1[C@@H]2CC[C@]2(C)[C@@H](/C=C/C=NOCCCNC(=N)N)CC[C@]12O (mixture of isomers) [Comp. I-at, 17β-[3-(EZ)-(3-Guanidinopropoxyimino)-1-(E)-propenyl]-5β-androstane-3β,14β-diol] | 158 nM | 316 nM | –
13 | C[C@]12CC[C@H](O)C[C@H]1CC[C@@H]1[C@@H]2CC[C@]2(C)[C@@H](CC=NNC(=N)N)CC[C@]12O (mixture of isomers) [Comp. I-bc, (EZ)-17β-(2-Guaidinoimino)ethyl-5β-androstane-3β,14β-diol] | 79.4 nM | 398 nM | –
14 | C[C@]12CC[C@H](O)C[C@H]1CC[C@@H]1[C@@H]2CC[C@]2(C)[C@@H](C=NNC(=N)N)CC[C@]12O [17β-guanidinoiminomethyl-5β-androstane-3β,14β-diol] | – | – | positive inotropic activity [1]: weak positive inotropic agents; inhibition of Na+,K+-ATPase (Na^+,K^+ -ATPase): weak inhibitors of Na^+,K^+ -ATPase
15 | C[C@]12CC[C@H](O)C[C@H]1CC[C@@H]1[C@@H]2CC[C@]2(C)[C@@H](/C=C/C=N/NC(=N)Nc3ccccc3)CC[C@]12O [Comp. I-aj, (E,E)-17β-[3-(3-Phenyl)guanidinoimino-1-propenyl]-5β-androstane-3β,14β-diol] | 1000 nM | – | IC50 [4]: 10000 nM
16 | CN(C)CCON=CC[C@H]1CC[C@]2(O)[C@@H]3CC[C@@H]4C[C@@H](OCCN5CCCC5)CC[C@]4(C)[C@H]3CC[C@]12C (mixture of isomers) [Comp. I-cg, 3β-[2-(1-Pyrrolidinyl)ethoxy]-17β-[3-(EZ)-(2-dimethylamino-ethoxyimino)ethyl]-5β-androstane-14β-ol] | 31.6 nM | 100 nM | –
17 | CN(C)CCO/N=C/C=C/[C@H]1CC[C@]2(O)[C@@H]3CC[C@@H]4C[C@H](O)CC[C@]4(C)[C@H]3CC[C@]12C [Comp. I-ck, (E,E)-17β-[3-(2-Dimethylaminoethoxyimino)-1-propenyl]-5β-androstane-3α,14β-diol] | – | 63.1 nM | IC50 [3]: 50.1 nM
18 | CC(CO[C@H]1CC[C@@]2(C)[C@H](CC[C@@H]3[C@@H]2CC[C@]2(C)[C@@H](/C=C/C=NOCCN(C)C)CC[C@]32O)C1)N1CCCC1 (mixture of isomers) [Comp. I-ca, 3β-[2-(1-Pyrrolidinyl)propoxy]-17β-[3-(EZ)-(2-dimethylamino-ethoxyimino)-1-(E)-propenyl]-5β-androstane-14β-ol] | 31.6 nM | 39.8 nM | –
